Data from patent US20120121691A1, “Method for Increasing the Production of a Specific ACYL-Chain Dihydroceramide(s) for Improving the Effectiveness of Cancer Treatments” (priority 2010, published 2012).

Tests used:
[1] = system: intracellular sphingolipids, CCRF-CEM cells; experiment: LC/MS/MS analysis of intracellular sphingolipids, CCRF-CEM; type: cell-based, human; conditions: for increase in corresponding dihydroceramide over sphinganine plus GT-11 alone: fatty acid in addition to sphinganine plus GT-11, six hours, P<0.05
Description: LC/MS/MS analysis of intracellular sphingolipids. Sphingolipids were separated using an Agilent 1200 HPLC (LC) and determined by ESI/MS/MS performed on a AB SCIEX 4000 QTRAP Hybrid Triple Quadrupole/Linear Ion Trap mass spectrometer (MS), operating in a multiple reaction monitoring positive ionization mode as described previously with moderate modifications (25). Briefly, 50 μL of a solution (1 μM) of internal sphingolipid standards (including -sphingosine, -sphinganine, -sphingosine-1-phosphate, and -ceramide) was added to each cell pellet sample. Lipids of each sample were extracted twice with 2 mL of the ethyl acetate/isopropyl alcohol/water (60:28:12; v:v) solvent system. Supernatants were transferred to glass tubes (Kimble Chase) and evaporated under air (10 PSI) at 40° C. After reconstitution in methanol (4 mL), 1 ml of each sample was separated for the determination of lipid phosphate. Remaining sample (3 mL) was dried and used for sphingolipid quantification. For ESI/MS/MS, the dried lipid sample was dissolved in mobile phase A. Samples were injected (10 μL) and separated on a Spectra C8SR, 150×3.0 mm, 3-μm particle size column using gradient-elution (mobile phase A/B, prepared as previously described).
Data acquisition, peak integration and analyte quantitation were performed using ABI/SCIEX Analyst 1.4.2 Software. Sphingolipid data were normalized to lipid phosphate as previously described (26). Briefly, samples were dried under air (10 PSI) and lipids were extracted using the method of Bligh and Dyer (27). Of importance for phosphate assay, only Kimble Chase disposable borosilicate tubes were used for minimal sample contamination. Organic phase was transferred to glass tubes and a known volume was separated to a new tube and dried at 80° C. Phosphate standards and dried samples were then heated with ashing buffer (water:10 N:70% [40:9:1]) at 160° C. overnight. Samples were then incubated with ammonium molybdate and ascorbic acid as previously described, and absorbance ([…]) was read using a SpectraMax.
CCRF-CEM cells were treated with drug/fatty acid vehicles (control), GT-11 (0.5 μM) alone, sphinganine (4 μM) alone or sphinganine (4 μM) plus GT-11 (0.5 μM) for six hours and subsequently prepared for sphingolipid analysis.
CCRF-CEM cells were treated with GT-11 (0.5 μM) alone, sphinganine (1 μM) alone or sphinganine (1 μM) plus GT-11 (0.5 μM) for six hours and prepared for quantitative analysis. DHCers were normalized to control and plotted as fold change (bar, z-axis). * indicates significance, with P<0.05. […] CCRF-CEM cells were treated with sphinganine (1 μM) plus GT-11 (0.5 μM) with and without specific solubilized fatty acids (carbon chain length (CX) and saturation (:X), Ex: C20:1=fatty acid with 20 carbons and one desaturation) for six hours and prepared for quantitative sphingolipid analysis. Dihydroceramides were normalized to control cells that received sphinganine plus GT-11 with no fatty acid and plotted as fold change (bar, z-axis). * indicates significance, with P<0.05.

LoVo colon cancer cells = experiment: DIMSCAN cytotoxicity assay, LoVo; type: cell-based, human; conditions: fatty acid 5 micromolar
Excerpt: (§1) Cell culture. The pre-T acute lymphoblastic leukemia cell lines MOLT-4 and CCRF-CEM, small cell lung cancer cell line NCI-H146, non-small cell lung cancer cell line NCI-H1792, colon cancer cell lines LoVo and HT-29, and breast cancer cell line MCF-7, were purchased from American Type Culture Collection, Manassas, Va., and grown at 20%/5% and 5%/5%, respectively. COG-LL-317 and COG-LL-332 pre-T acute lymphoblastic leukemia cell lines were obtained from the TTUHSC Cancer Center Cell Repository and grown at 5%/5%. Cell line identities were verified by short tandem repeat analysis and mycoplasma testing was performed. Cell lines were maintained in RPMI-1640 medium supplemented with 10% fetal bovine serum (FBS, Invitrogen) in humidified, 37° C. incubators. For all experiments, ALL cell lines were seeded at 2. cells/mL in RPMI-1640 medium supplemented with 15% fetal bovine serum. Solid tumor cell lines were plated at 5×cells/mL in RPMI-1640 medium supplemented with 10% fetal bovine serum.
(§2) Cytotoxicity Assay. Cytoxicity is determined using the DIMSCAN assay system (R. Proffitt et al., Cytometry 24, 204-213 (1996); T. Frgala et al., Proc. AACR, 36, 303 (1995). The system employs digital imaging microscopy to quantify viable cells, which selectively accumulate fluorescein diacetate to become brightly fluorescent. The system is capable of measuring cytotoxicity over a 4-5 log dynamic range by quenching the residual fluorescence of dead and dying cells with eosin Y and quantifying the total fluorescence of viable cells using digital thresholding. Measured fluorescence is directly proportionate to the number of viable cells.
(§3) In brief, 5,000 to 25,000 cells/well depending on the cell line (5,000 for solid tumor, 25,000 for ALL cell lines) were replicate plated into 60 wells of a 96-well tissue culture plate in 0.1 cc media and allowed to attach or recover overnight. Drug(s) are then added in 0.05 cc media to the final concentrations indicated. […] Total fluorescence of viable cells is then measured by digital imaging microscopy and the signal normalized to control cells. […]

MOLT-4 ALL cells = experiment: DIMSCAN cytotoxicity assay, MOLT-4; type: cell-based, human; conditions: MOLT-4, sphinganine 1 μM, GT-11 0.5 μM, 48 hours
Excerpt: as §1
as §2, with “cells. A comparison of the total fluorescence of a drug-treated cell population to the fluorescence of a similar number of untreated cells yields a survival fraction. […]” for “cells.”
(§4) The addition of C22:0-fatty acid, but not C18:0 or C22:1 fatty acids, increased cytotoxicity (FIGS. 7A-7F). […] Cytotoxicity was measured using DIMSCAN, and data was normalized to control and plotted as survival fraction (y-axis). […]

[2] = system: NCI-H1792 non-small cell lung cancer cells; experiment: DIMSCAN cytotoxicity assay, NCI-H1792; type: cell-based; conditions: NCI-H1792, fatty acid 5 micromolar
Excerpt: as §1
as §2, with “cells. A comparison of the total fluorescence of a drug-treated cell population to the fluorescence of a similar number of untreated cells yields a survival fraction.” for “cells.”
(§5) In brief, 5,000 to 25,000 cells/well depending on the cell line (5,000 for solid tumor, 25,000 for ALL cell lines) were replicate plated into 60 wells of a 96-well tissue culture plate in 0.1 cc media and allowed to attach or recover overnight. […]

[3] = system: pre-T acute lymphoblastic leukemia cell lines CCRF-CEM, MOLT-4, COG-LL-317 and COG-LL-332; experiment: DIMSCAN cytotoxicity assay across the four pre-T ALL cell lines; type: cell-based, human; conditions: COG-LL-317, COG-LL-332, CCRF-CEM, 4-HPR 0-9 μM, 48 hours
Excerpt: as §1, with “For all experiments, ALL cell lines were seeded at 2. cells/mL in RPMI-1640 medium supplemented with 15% fetal bovine serum. Solid tumor cell lines were plated at 5×cells/mL in RPMI-1640 medium supplemented with 10% fetal bovine serum.” left out
as §2, with “cells. […]” for “cells.”

COG-LL-332 = experiment: DIMSCAN cytotoxicity assay, COG-LL-332; type: cell-based; conditions: COG-LL-332, sphinganine 1 μM, GT-11 0.5 μM, 48 hours
Excerpt: as §1
as §2, with “cells. A comparison of the total fluorescence of a drug-treated cell population to the fluorescence of a similar number of untreated cells yields a survival fraction. […]” for “cells.”
as §4

[4] = system: MCF-7 breast cancer cells; experiment: DIMSCAN cytotoxicity assay, MCF-7; type: cell-based; conditions: MCF-7, fatty acid 5 micromolar
Excerpt: as §1
as §2, with “cells. A comparison of the total fluorescence of a drug-treated cell population to the fluorescence of a similar number of untreated cells yields a survival fraction.” for “cells.”
as §5

COG-LL-317 = experiment: DIMSCAN cytotoxicity assay, COG-LL-317; type: cell-based; conditions: COG-LL-317, sphinganine 1 μM, GT-11 0.5 μM, 48 hours
Excerpt: as §1
as §2, with “cells. A comparison of the total fluorescence of a drug-treated cell population to the fluorescence of a similar number of untreated cells yields a survival fraction. […]” for “cells.”
as §4

[5] = system: NCI-H146 small cell lung cancer cells; experiment: DIMSCAN cytotoxicity assay, NCI-H146; type: cell-based, human; conditions: NCI-H146, fatty acid 5 micromolar
Excerpt: as §1, §2, §3

CCRF-CEM = system: CCRF-CEM
Description: Statistical analyses. Descriptive statistics and significance testing were performed using Microsoft Excel. The Excel function “t.test” was used for Student's T-testing (two-tailed, type-2). Propagated standard deviations were calculated using standard methods. Correlation analyses were performed using Sigmaplot 11 software. […]
Due to the confounding effect of in vitro fatty acid conversion, correlation analyses were used to identify significant relationships between absolute levels of specific sphingolipids and cytotoxicity. […]

SMILES: CCCCCCCCCCCCCC(=O)O [C14:0-fatty acid]
- increase in corresponding dihydroceramide over sphinganine plus GT-11 alone [1]: significant increases

SMILES: CCCCCCCCCCCCCCCC(=O)O [C16:0-fatty acid]
- increase in corresponding dihydroceramide over sphinganine plus GT-11 alone [1]: significant increases

SMILES: CCCCCCCCCCCCCCCCCC(=O)O [C18:0-fatty acid]
- effect of fatty acid on fenretinide cytotoxicity (LoVo colon cancer cells): did not increase cytotoxicity
- effect of fatty acid co-treatment on cytotoxicity of sphinganine with GT-11 (MOLT-4 ALL cells): not
- effect of fatty acid on fenretinide cytotoxicity [2]: did not increase cytotoxicity
- effect of fatty acid on fenretinide (4-HPR) cytotoxicity [3]: not
- effect of fatty acid co-treatment on cytotoxicity of sphinganine with GT-11 (COG-LL-332): not
- effect of fatty acid on fenretinide cytotoxicity [4]: did not increase cytotoxicity
- effect of fatty acid co-treatment on cytotoxicity of sphinganine with GT-11 (COG-LL-317): not
- effect of fatty acid on fenretinide cytotoxicity [5]: did not increase cytotoxicity

SMILES: CCCCCCCCCCCCCCCCCCCC(=O)O [C20:0-fatty acid]
- increase in C22:0-DHCer over sphinganine plus GT-11 alone ([1]; fatty acid 5 μM in addition to sphinganine 1 μM plus GT-11 0.5 μM, six hours, P<0.001): 12 fold
- increase in corresponding dihydroceramide over sphinganine plus GT-11 alone [1]: significant increases

SMILES: CCCCCCCCCCCCCCCCCCCCCCCC(=O)O [C24:0-fatty acid]
- effect of fatty acid on fenretinide cytotoxicity (LoVo colon cancer cells): did not increase cytotoxicity
- increase in corresponding dihydroceramide over sphinganine plus GT-11 alone [1]: significant increases
- effect of fatty acid on fenretinide cytotoxicity [2]: did not increase cytotoxicity
- effect of fatty acid on fenretinide cytotoxicity [4]: did not increase cytotoxicity
- effect of fatty acid on fenretinide cytotoxicity [5]: did not increase cytotoxicity

SMILES: CCCCCCCC/C=C\CCCCCCCCCCCCCC(=O)O [C24:1-fatty acid]
- increase in corresponding dihydroceramide over sphinganine plus GT-11 alone [1]: significant increases

SMILES: CCCCCCCCCCCCCCC[C@@H](O)[C@@H](N)CO [Sphinganine, (2S,3R)-2-aminooctadecane-1,3-diol, reference compound]
- Pearson Coef. (r), sphingolipid level vs cytotoxicity (CCRF-CEM): −0.21
- Spearman Coef. (ρ), sphingolipid level vs cytotoxicity (CCRF-CEM): −0.30
- increase of total ceramide ([1]; sphinganine 4 μM alone, six hours, normalized to control, P<0.001): 1.5 fold
